Measurements reported in patent US20210267986A1, “THERAPEUTIC REGIMENS FOR TREATMENT OF CANCER USING ERIBULIN AND SELECTIVE CDK4/6 INHIBITOR COMBINATIONS” (G1 Therapeutics, Inc., priority 2018, published 2021).

Legend:
[1] = tested on: lineage negative (Lin−) bone marrow cells (HSPC); experiment: EdU incorporation by flow cytometry in MCF7 tumor-bearing mice, bone marrow; type: in vivo; conditions: single dose IP 100 mg/kg
Description: (§1) FIG. 2A is a graph depicting the percentage of EdU positive MCF7 tumor cells vs. Edu positive Lin^− bone marrow cells from MCF7 tumor bearing mice treated with Compound 1 at 4, 12, 24, and 48 hours post treatment. MCF7 tumor cells are on the left at each time point while Lin- bone marrow cells are on the right at each time point. FIG. 2B is a graph depicting the percentage of EdU positive MCF7 tumor cells vs. Edu positive Lin^− bone marrow cells from MCF7 tumor bearing mice treated with Compound 1 at 4, 12, 24, and 48 hours post treatment normalized to baseline. MCF7 tumor cells are on the left at each time point while Lin- bone marrow cells are on the right at each time point.
(§2) MCF7 tumor-bearing mice were treated with a single dose of Compound 1 (IP, 100 mg/kg) or vehicle control. After 4, 12, 24, and 48 hours of treatment, animals were pulsed with 5-ethynyl-2′-deoxyuridine (EdU; IP, 200 […]g). Tumors and femurs from each animal were harvested after 4 hours of EdU dosing and processed to single cell suspensions for detection of EdU+ cells by flow cytometry. HSPC in bone marrow is defined as cell populations negative for lineage markers (Mac-1, Gr-1, Ter119, B220, CD4, CD8). […] Students T tests were completed to compare % EdU+ cells (tumor vs bone marrow) at baseline in panel A ****p≤0.0001.

[2] = tested on: MCF7 tumor cells; experiment: EdU incorporation by flow cytometry in MCF7 tumor-bearing mice, tumor cells; type: in vivo; conditions: single dose IP 100 mg/kg
Description: as §1, §2

[3] = tested on: MDA-MB-231 breast cancer xenograft; experiment: MDA-MB-231 xenograft, daily Compound 1 with weekly eribulin, tumor volume; type: in vivo, mice
Description: The y-axis is tumor volume measured in cubic millimeters. The x-axis is time measured in days. The dotted line represents dates of weekly treatment. The error bars represent standard error of the mean.
A highly CDK4/6 dependent breast cancer xenograft model (MDA-MB-231) was employed to determine whether continuous CDK4/6 inhibition with Compound 1 would antagonize the intended therapeutic effects of eribulin. First, MDA-MB-231 tumor-bearing mice were treated daily with Compound 1 (IP, 100 mg/kg, n=10) for 28 days to confirm the CDK4/6 dependency of the xenograft model. Next, MDA-MB-231 tumor-bearing mice were treated with eribulin (IV, 0.5 mg/kg, n=10) weekly for three weeks. Next, MDA-MB-231 tumor-bearing mice were treated daily with Compound 1 (IP, 100 mg/kg, n=10) and with eribulin (IV, 0.5 mg/kg, n=10) weekly for three weeks, with Compound 1 being given 30 minutes prior to chemotherapy treatment on days 1, 8, and 15. In all experiments, tumors were measured, and tumor volume was calculated twice weekly. The dosing schedule is shown below in Table 1. […] Therefore, Compound 1 can be administered to preserve hematopoietic stem and progenitor cell (HSPC) and immune system function during eribulin therapy without antagonizing the intended anti-tumor efficacy of eribulin.

[4] = tested on: MDA-MB-231 breast cancer xenograft; experiment: MDA-MB-231 xenograft, weekly Compound 1 30 minutes prior to eribulin, tumor volume; type: in vivo, mice
Description: The graphs represent mean tumor volume over time. The y-axis is tumor volume measured in cubic millimeters. The x-axis is time measured in days. The dotted line represents dates of weekly treatment. The error bars represent standard error of the mean.
A highly CDK4/6 dependent breast cancer xenograft model (MDA-MB-231) was employed to determine whether transient CDK4/6 inhibition with Compound 1 would antagonize the intended therapeutic effects. First, MD-MB-231 tumor-bearing mice were treated daily with Compound 1 (IP, 100 mg/kg, n=6-8) for 28 days to confirm the CDK4/6 dependency of the xenograft model. Next, MDA-MB-231 tumor-bearing mice were treated with eribulin (IV, 0.5 mg/kg) with or without Compound 1 (IP, 100 mg/kg) weekly for three weeks, with Compound 1 being given 30 minutes prior to chemotherapy treatment. In all experiments, tumors were measured, and tumor volume was calculated twice weekly. […] Therefore, Compound 1 can be administered to preserve hematopoietic stem and progenitor cell (HSPC) and immune system function during eribulin therapy without antagonizing the intended anti-tumor efficacy of eribulin.

[5] = patients receiving eribulin; cited from earlier work
[6] = Lin− bone marrow cells, post treatment
[7] = MCF7 tumor cells, post treatment

Compound | G1-arrest of hematopoietic stem cells [1] | time of maximal cell cycle inhibition (% EdU+ normalized to baseline) [1, 6] [h] | time of reentering the cell cycle [1, 6] [h] | time of maximal cell cycle inhibition (% EdU+ normalized to baseline) [2, 7] [h] | time of reentering the cell cycle [2, 7] [h] | cell cycle status of tumor cells after Compound 1 ([2]; S/G2/M) | effect of continuous Compound 1 on eribulin therapy (tumor volume) ([3]; Compound 1 IP 100 mg/kg daily for 28 days plus eribulin IV 0.5 mg/kg weekly for three weeks, compared to eribulin alone) | anti-tumor effect of Compound 1 alone ([3]; IP 100 mg/kg daily for 28 days) | effect of Compound 1 on eribulin therapy (tumor volume) ([4]; Compound 1 IP 100 mg/kg 30 minutes prior to eribulin IV 0.5 mg/kg, weekly for three weeks, compared to eribulin alone) | anti-tumor effect of Compound 1 alone ([4]; IP 100 mg/kg, dosed on a similar schedule as in combination with eribulin (weekly for three weeks)) | incidence of >grade 3 neutropenia [5]
CN1CCN(c2ccc(Nc3ncc4cc5n(c4n3)C3(CCCCC3)CNC5=O)nc2)CC1 [Compound 1, 2′-((5-(4-methylpiperazin-1-yl)pyridin-2-yl)amino)-7′,8′-dihydro-6′H-spiro(cyclohexane-1,9′-pyrazino(1′,2′: 1,5)pyrrolo(2,3-d)pyrimidin)-6′-one] | nearly universal G1-arrest | 24 | ≤ 48 | 24 | ≤ 48 | a significant fraction of tumor cells are past the G1 checkpoint | synergistic effect | did demonstrate a significant anti-tumor effect | no antagonist effect | did not demonstrate any significant anti-tumor effect | –
C=C1C[C@@H]2CC[C@@]34C[C@H]5O[C@H]6[C@@H](O3)[C@H]3O[C@H](CC[C@@H]3O[C@H]6[C@H]5O4)CC(=O)C[C@@H]3[C@@H](OC)[C@@H](C[C@H](O)CN)O[C@H]3C[C@H]3O[C@@H](CC[C@@H]1O2)C[C@@H](C)C3=C [eribulin] | – | – | – | – | – | – | – | – | – | – | around 57%
